Reference: patent US20090018106A1, “INTRAVENOUS FORMULATIONS OF PYRIDOXAL 5'- PHOSPHATE AND METHOD OF PREPARATION” (Medicure International Inc., priority 2005, published 2009)
“Also recorded” adds a separate entry of the source. Like-named read-outs stand apart in the source and are kept apart here.

How the values were obtained:
Format in all cases: in vivo, human
[1] = Single intravenous dose escalation of P5P, plasma pharmacokinetics (Examples Two and Three); details: for Cmax / MRT / Tmax / Vd / clearance / AUC / half-life / AUC(0-t): both sexes, human, plasma; for Cmax / MRT / Tmax / Vd / clearance / AUC / half-life: iv; for AUC(0-t): read-out: AUC-T
Experimental: A phase one clinical trial was conducted to compare the pharmacokinetics of intravenously administered P5P and orally administered P5P. The trial was a single dose escalation study.
For intravenous administration, P5P was administered by bolus injection under fasting conditions. The following doses of P5P were studied: 1, 5, 10, and 20 mg/kg. 6 subjects were assigned to each dosage group.
P5P, pyridoxal, and 4-pyridoxic acid were evaluated in both plasma and urine over a 24 hour interval following either intravenous or oral dosing. The results are set out below in Tables 2 and 3.
Methodology—This was a single-blind, single-dose escalation, non-randomized, 4-phase, non-crossover study designed to evaluate the safety and […] subjects under fasting conditions and to estimate pharmacokinetic parameters of P5P.
Subjects were assigned to one of the four groups (six subjects per group) under fasting conditions.
Concentrations of pyridoxal-5′-phosphate (P5P) were measured from the plasma samples collected over a 24-bour interval after dosing in each phase.
Pharmacokinetic parameters: AUCt, AUCinf, Cmax, Tmax, Kel, Thalf, Vd, CL, MRT and F were estimated based on pyridoxal-5′-phosphate (P5P) plasma levels for each subject that was in the final data set.
The test product used was a P5P Intravenous Injectable Solution, 50 mg/ml, which was prepared in accordance with the methods of Example 1 (CanAm BioResearch Inc. Canada); Lot No.: LP1459: Manufacturing Date: 12/03. A single 1, 5, 10 or 20 mg/kg dose was given by intravenous injection. The duration of treatment was a single dose.
Secondary Endpoint—Pharmacokinetic (PK) Parameters—Plasma concentrations of pyridoxal-5′-phosphate (P5P) were measured by a validated analytical method. Based on these concentration levels, AUCt, AUCinf, Cmax, Tmax, Kel, Thalf, Vd, CL, MRT and F were estimated.
Statistical Methods—Descriptive statistics were calculated by treatments for the estimated pharmacokinetic parameters.

[2] = Safety evaluation of once daily intravenous 10 mg/kg P5P for four days (Example Four)
Experimental: Data sets analyzed—Six (6) healthy, adult non-smokers were administered intravenously a single daily dose of 10 mg/kb of P5P for four consecutive days and completed the study. In accordance with the study protocol, data from all subjects who completed the study were used for pharmacokinetic and statistical analysis.
Safety Methods—The safety parameters investigated in this study were: adverse events, vital sign measurements, ECGs, physical examination and standard laboratory evaluations.

[3] = Safety and tolerability of single intravenous doses of P5P (Example Three)
Experimental: Methodology—This was a single-blind, single-dose escalation, non-randomized, 4-phase, non-crossover study designed to evaluate the safety and tolerability of P5P intravenous injectable solution at doses of 1, 5, 10, 20 mg/kg, administered to four groups of healthy male and female subjects under fasting conditions and to estimate pharmacokinetic parameters of P5P.
Safety data were collected for each subject throughout the study by recording vital signs, ECGs and reported adverse events.
Primary Endpoint—Safety Parameters—The safety parameters investigated in this study were vital signs measurements (blood pressure, pulse rate), ECG measurements (1, 2 and 12 hours post-dose), platelet function testing, and severity and causality of adverse events experienced by subjects during the study period and laboratory assessments (clinical chemistry, hematology, urinalysis).

[4] = 1 mg/kg, Group 1, P5P 1 mg/kg single iv, plasma P5P, mean
[5] = 1 mg/kg, P5P 1 mg/kg single iv bolus, fasting
[6] = 5 mg/kg, Group 2, P5P 5 mg/kg single iv, plasma P5P, mean
[7] = 5 mg/kg, P5P 5 mg/kg single iv bolus, fasting
[8] = 10 mg/kg, Group 3, P5P 10 mg/kg single iv, plasma P5P, mean
[9] = 10 mg/kg, Group 4, dose 10 mg/kg, single iv, plasma P5P, mean
[10] = 10 mg/kg, P5P 10 mg/kg single iv bolus, fasting
[11] = 20 mg/kg, P5P 20 mg/kg single iv bolus, fasting
[12] = ln(pK Parameter) = b0 + b1 * ln (Dose)
[13] = ln(pK Parameter) = b0 + b1 * ln (Dose), single iv 1-20 mg/kg

Kel ([1]; Group 1, P5P 1 mg/kg single iv, plasma P5P, mean): 0.14 h⁻¹ | Kel ([1]; Group 2, P5P 5 mg/kg single iv, plasma P5P, mean): 0.118 h⁻¹ | Kel ([1]; Group 3, P5P 10 mg/kg single iv, plasma P5P, mean): 0.12 h⁻¹ | Kel ([1]; Group 4, dose 10 mg/kg, single iv, plasma P5P, mean): 0.14 h⁻¹ | Cmax [1, 4]: 20 µg/mL | MRT [1, 4]: 3.73 h | Tmax [1, 4]: 8.4 min | Vd [1, 4]: 13 L | clearance [1, 4]: 29.3 mL/min | AUC ([1]; 1 mg/kg, Group 1, P5P 1 mg/kg single iv, plasma P5P, mean, read-out: AUC (O-t)): 38.4 µg·h/mL | AUC ([1]; 1 mg/kg, Group 1, P5P 1 mg/kg single iv, plasma P5P, mean, read-out: AUC (o-inf)): 39.1 µg·h/mL | half-life ([1]; 1 mg/kg, Group 1, P5P 1 mg/kg single iv, plasma P5P, mean, read-out: T½ (converted)): 5.11 h | Cmax [1, 5]: 20 ± 2.95 µg/mL | Tmax [1, 5]: 8.4 ± 4.2 min | half-life ([1]; 1 mg/kg, P5P 1 mg/kg single iv bolus, fasting, read-out: T½ (converted)): 5.11 ± 0.98 h | Cmax [1, 6]: 98.8 µg/mL | MRT [1, 6]: 3.52 h | Tmax [1, 6]: 8.4 min | Vd [1, 6]: 16.3 L | clearance [1, 6]: 32.1 mL/min | AUC ([1]; 5 mg/kg, Group 2, P5P 5 mg/kg single iv, plasma P5P, mean, read-out: AUC (O-t)): 173 µg·h/mL | AUC ([1]; 5 mg/kg, Group 2, P5P 5 mg/kg single iv, plasma P5P, mean, read-out: AUC (o-inf)): 176 µg·h/mL | half-life ([1]; 5 mg/kg, Group 2, P5P 5 mg/kg single iv, plasma P5P, mean, read-out: T½ (converted)): 5.89 h | Cmax [1, 7]: 98.8 ± 16 µg/mL | Tmax [1, 7]: 8.4 ± 4.2 min | half-life ([1]; 5 mg/kg, P5P 5 mg/kg single iv bolus, fasting, read-out: T½ (converted)): 5.89 ± 0.39 h | Cmax [1, 8]: 220 µg/mL | MRT [1, 8]: 3.11 h | Tmax [1, 8]: 6 min | Vd [1, 8]: 18 L | clearance [1, 8]: 35.2 mL/min | AUC ([1]; 10 mg/kg, Group 3, P5P 10 mg/kg single iv, plasma P5P, mean, read-out: AUC (o-inf)): 312 µg·h/mL | half-life ([1]; 10 mg/kg, Group 3, P5P 10 mg/kg single iv, plasma P5P, mean, read-out: T½ (converted)): 5.81 h | Cmax [1, 9]: 424 µg/mL | MRT [1, 9]: 3.32 h | Tmax [1, 9]: 9 min | Vd [1, 9]: 17.5 L | clearance [1, 9]: 39.8 mL/min | AUC ([1]; 10 mg/kg, Group 4, dose 10 mg/kg, single iv, plasma P5P, mean, read-out: AUC (O-t)): 577 µg·h/mL | AUC ([1]; 10 mg/kg, Group 4, dose 10 mg/kg, single iv, plasma P5P, mean, read-out: AUC (o-inf)): 585 µg·h/mL | half-life ([1]; 10 mg/kg, Group 4, dose 10 mg/kg, single iv, plasma P5P, mean, read-out: T½ (converted)): 5.03 h | Cmax [1, 10]: 220 ± 9.52 µg/mL | Tmax [1, 10]: 6 ± 1.8 min | half-life ([1]; 10 mg/kg, P5P 10 mg/kg single iv bolus, fasting, read-out: T½ (converted)): 5.87 ± 0.89 h | Cmax [1, 11]: 424 ± 96.9 µg/mL | Tmax [1, 11]: 9 ± 4.2 min | half-life ([1]; 20 mg/kg, P5P 20 mg/kg single iv bolus, fasting, read-out: T½ (converted)): 5.03 ± 0.72 h | half-life ([1]; over all single iv doses of P5P (1-20 mg/kg), read-out: apparent elimination half-life (converted)): 5 to 6 h | AUC(0-t) ([1]; P5P 1 mg/kg single iv bolus, fasting): 38.4 ± 4.61 µg·h/mL | AUC(0-t) ([1]; P5P 5 mg/kg single iv bolus, fasting): 173 ± 31.9 µg·h/mL | AUC(0-t) ([1]; P5P 10 mg/kg single iv bolus, fasting): 308 ± 45.5 µg·h/mL | AUC(0-t) ([1]; P5P 20 mg/kg single iv bolus, fasting): 577 ± 62.5 µg·h/mL | Significance of b1, lnAUCi [1, 12]: <0.0001 | Significance of b1, lnCl [1, 12]: 0.0128 | Significance of b1, lnCmax [1, 12]: <0.0001 | Significance of b1, lnMRT [1, 12]: 0.1568 | Significance of b1, lnThalf [1, 12]: 0.6177 | Coef. for Dose (b1), lnAUCi [1, 13]: 0.90 | Coef. for Dose (b1), lnCl [1, 13]: 0.10 | Coef. for Dose (b1), lnCmax [1, 13]: 1.03 | Coef. for Dose (b1), lnMRT [1, 13]: −0.05 | Coef. for Dose (b1), lnThalf [1, 13]: 0.02 | Intercept (b0), lnAUCi [1, 13]: 3.67 | Intercept (b0), lnCl [1, 13]: 7.44 | Intercept (b0), lnCmax [1, 13]: 2.98 | Intercept (b0), lnMRT [1, 13]: 1.29 | Intercept (b0), lnThalf [1, 13]: 1.67
SMILES: Cc1ncc(COP(=O)(O)O)c(C=O)c1O [P5P, Pyridoxal 5′-phosphate, reference compound]
bioavailability, intravenous versus oral ([1]; single iv bolus vs single oral tablets): greater when intravenously administered rather than orally administered | clinically significant elevated white blood cells (WBC) in urine (pyuria) ([2]; 10 mg/kg iv once daily, 4 days): observed for two subjects | diarrhea or vomiting ([2]; 10 mg/kg iv once daily, 4 days): No diarrhea or vomiting was reported | overall safety profile ([2]; 10 mg/kg iv once daily, 4 days): No serious, severe, or significant adverse events; also recorded: well tolerated with no serious or lasting treatment related effects | abnormal taste in the mouth ([2]; 1 subject, 10 mg/kg iv once daily, 4 days): 16.7% | dizziness (feels dizzy and dizziness) ([2]; 2 subjects, 10 mg/kg iv once daily, 4 days): 33.3 % of subjects | nausea ([2]; 3 subjects, 10 mg/kg iv once daily, 4 days): 50.0 % of subjects | inflammation at injection site ([2]; 3 subjects, judged unrelated to the study medication): 50.0 % of subjects | total adverse events ([2]; six subjects, 10 mg/kg iv once daily, 4 days): 40 | safety and tolerability ([3]; single iv dose, doses up to 20 mg/kg): safe and well tolerated | common side effects observed ([3]; single iv doses 1-20 mg/kg): nausea, vomiting and stomach upset
